Marks after values point to notes of the source that are not given here.
What was measured:
Type in all cases: cell-based
[1] = system: P. gingivalis virulence genes; test: Virulence gene expression in multi-species biofilm (SYBR RT-qPCR); details: relative to control, 2^-ΔΔCt, n = 3
Protocol: (§1) Biofilms are grown vertically on Calcium Deficient Hydroxyapatite (CAD-HA) disks (Hitemco Medical, Old Bethpage, USA) using the Amsterdam Active Adhesion model. Biofilms are allowed to establish during 24 h (37° C., 170 rpm) under microaerophilic conditions (6% O2, 7% CO2, 7% H2, 80% N2). After this 24 h, disks are rinsed 3 times a day for 3 minutes (RT, 250 rpm), for 3 consecutive days, by transferring the lid containing the disks to a new 24-well plate containing 2 mL/well of the appropriate substrate solution. As a negative control, PBS (pH 5.7) without substrate supplementation is used.
(§2) The virulence of the substrate-treated multi-species biofilms are evaluated by analyzing the relative expression of 33 genes that are recognized as being related to some form of virulence and from 4 periodontal pathogens.
(§3) Expression of bacterial virulence genes is analyzed through SYBR RT-qPCR and normalized for bacterial housekeeping gene expression. […] These effects are illustrated in Tables 6a and 6b:
(§4) Note, for Tables 6a and 6b, that fold changes in virulence gene expression are determined relative to the control condition through the 2^^-ΔΔCt method and are shown as the geometric mean (C.I.) (n = 3) of the 2^^-ΔΔ ^Ct values. All substrates are dissolved in PBS at a concentration of 1 M (upper part) or 1%(w/v) (lower part). Values between 0 and 1 represent relative downregulation, values >1 represent relative upregulation. […] NADG: N-acetyl-D-glucosamine; C.I.: 95% confidence interval.

[2] = system: A. actinomycetemcomitans virulence genes; test: as above
Protocol: as §1, §2, §3, §4

A. viscosus = test: Multi-species biofilm composition, absolute abundance (Geq/mL); details: repeated rinsing
Protocol: as §1
(§5) N-acetyl-D-glucosamine (NADG), α-D-lactose, D-(+)-trehalose and D-(+)-raffinose are selected to determine their effects on multi-species biofilm composition. […] decrease in absolute numbers in at least four of the pathogenic bacterial species tested in the assay, in comparison to the control, the results of which are described in Table 1 below. Note, NADG decreased absolute numbers of S. sobrinus. Absolute abundances of bacterial species are shown as mean ± SD (n = 3) logarithmic values of the genome equivalents per millilitre (log(Geq/mL)).

V. parvula = test: as above; details: repeated rinsing
Protocol: as §1, §5

S. salivarius = test: as above; details: repeated rinsing
Protocol: as §1, §5

S. sanguinis = test: as above; details: repeated rinsing
Protocol: as §1, §5

F. nucleatum = test: as above; details: repeated rinsing
Protocol: as §1, §5

S. mutans = test: as above; details: repeated rinsing
Protocol: as §1, §5

A. naeslundii = test: as above; details: repeated rinsing
Protocol: as §1
(§6) N-acetyl-D-glucosamine (NADG), α-D-lactose, D-(+)-trehalose and D-(+)-raffinose are selected to determine their effects on multi-species biofilm composition. Repeated rinsing of the biofilms with the substrates at a concentration of 1 M results in a significant decrease in absolute numbers in at least four of the pathogenic bacterial species tested in the assay, in comparison to the control, the results of which are described in Table 1 below. Note, NADG decreased absolute numbers of S. sobrinus. Absolute abundances of bacterial species are shown as mean ± SD (n = 3) logarithmic values of the genome equivalents per millilitre (log(Geq/mL)).

S. sobrinus = test: as above; details: repeated rinsing
Protocol: as §1, §6

P. intermedia = test: as above; details: repeated rinsing
Protocol: as §1, §6

S. mitis = test: as above; details: repeated rinsing
Protocol: as §1, §6

S. gordonii = test: as above; details: repeated rinsing
Protocol: as §1, §6

P. gingivalis = test: as above; details: repeated rinsing
Protocol: as §1, §6

A. actinomycetemcomitans = test: as above; details: repeated rinsing
Protocol: as §1, §6

S. oralis = test: as above; details: for absolute abundance of S. oralis, mean ± SD log (Geq/mL): repeated rinsing
Protocol: as §1, §6

[3] = lower part of Table 6a, substrate 1%(w/v), relative to control = 1
[4] = substrate 1 M, relative to control = 1, 2^-ΔΔCt, n = 3

SMILES: OC[C@H]1O[C@H](OC[C@H]2O[C@H](O[C@]3(CO)O[C@H](CO)[C@@H](O)[C@@H]3O)[C@H](O)[C@@H](O)[C@@H]2O)[C@H](O)[C@@H](O)[C@H]1O [D-raffinose, D-(+)-raffinose]
- fold change in fimA expression, geometric mean (95% C.I.) ([1]; substrate 1 % (w/v)): 1.47 (0.92-2.34) fold
- fold change in kgp expression, geometric mean (95% C.I.) ([1]; substrate 1 % (w/v)): 1.77 (0.74-4.21) fold
- fold change in partC expression, geometric mean (95% C.I.) ([1]; substrate 1 % (w/v)): 0.54 (0.26-1.12) fold
- fold change in rgpA expression, geometric mean (95% C.I.) ([1]; substrate 1 % (w/v)): 1.42 (1.12-1.80) fold
- fold change in fimA expression, geometric mean (95% C.I.) ([1]; substrate 1 M): 0.03 (0.00-0.16)* fold
- fold change in kgp expression, geometric mean (95% C.I.) ([1]; substrate 1 M): <LOD
- fold change in partC expression, geometric mean (95% C.I.) ([1]; substrate 1 M): 0.02 (0.00-0.12)^∗ fold
- fold change in rgpA expression, geometric mean (95% C.I.) ([1]; substrate 1 M): 0.01 (0.00-0.10)^∗ fold
- fold change in aae expression, geometric mean (95% C.I.) [2, 3]: 1.34 (0.38-4.68) fold
- fold change in apaH expression, geometric mean (95% C.I.) [2, 3]: 0.91 (0.48-1.73) fold
- fold change in cdtB expression, geometric mean (95% C.I.) [2, 3]: 0.73 (0.16-3.39) fold
- fold change in emaA expression, geometric mean (95% C.I.) [2, 3]: 0.59 (0.13-2.77) fold
- fold change in flp expression, geometric mean (95% C.I.) [2, 3]: 0.89 (0.40-1.99) fold
- fold change in ltxA expression, geometric mean (95% C.I.) [2, 3]: 0.30 (0.12-0.79) fold
- fold change in omp29 expression, geometric mean (95% C.I.) [2, 3]: 0.87 (0.26-2.87) fold
- fold change in omp100 expression, geometric mean (95% C.I.) [2, 3]: 0.31 (0.09-1.08)^∗ fold
- fold change in orf859 expression, geometric mean (95% C.I.) [2, 3]: 1.66 (0.86-3.20) fold
- fold change in pgA expression, geometric mean (95% C.I.) [2, 3]: 0.99 (0.38-2.55) fold
- fold change in vapA expression, geometric mean (95% C.I.) [2, 3]: 1.14 (0.40-3.20) fold
- fold change in vppA expression, geometric mean (95% C.I.) [2, 3]: 1.08 (0.53-2.18) fold
- fold change in aae expression, geometric mean (95% C.I.) [2, 4]: 0.16 (0.05-0.47)^∗ fold
- fold change in apaH expression, geometric mean (95% C.I.) [2, 4]: 0.11 (0.02-0.73)^∗ fold
- fold change in cdtB expression, geometric mean (95% C.I.) [2, 4]: 0.07 (0.02-0.25)^∗ fold
- fold change in emaA expression, geometric mean (95% C.I.) [2, 4]: 0.09 (0.03-0.29)^∗ fold
- fold change in flp expression, geometric mean (95% C.I.) [2, 4]: 0.45 (0.17-1.22) fold
- fold change in ltxA expression, geometric mean (95% C.I.) [2, 4]: 0.01 (0.01-0.03)^∗ fold
- fold change in omp29 expression, geometric mean (95% C.I.) [2, 4]: 1.37 (0.34-5.47) fold
- fold change in omp100 expression, geometric mean (95% C.I.) [2, 4]: 0.09 (0.02-0.43)^∗ fold
- fold change in orf859 expression, geometric mean (95% C.I.) [2, 4]: 0.02 (0.01-0.05)^∗ fold
- fold change in pgA expression, geometric mean (95% C.I.) [2, 4]: 7.26 (2.09-25.17)^∗ fold
- fold change in vapA expression, geometric mean (95% C.I.) [2, 4]: 0.50 (0.13-1.94) fold
- fold change in vppA expression, geometric mean (95% C.I.) [2, 4]: 0.05 (0.04-2.42)^∗ fold
- fold change in pgA expression, geometric mean (95% C.I.) ([2]; substrate 1 M, relative to control = 1, 2^-ΔΔCt, n = 3, listed as D-(+)-raffinose): 7.3 fold
- absolute abundance of A. viscosus (Av), mean ± SD log (Geq/mL) (A. viscosus; substrate 1% (w/v)): 7.77 ± 0.14 log (Geq/mL)
- absolute abundance of A. viscosus (Av), mean ± SD log (Geq/mL) (A. viscosus; substrate 1 M in PBS, n = 3): 7.08 ± 0.59 log (Geq/mL)
- absolute abundance of V. parvula (VP), mean ± SD log (Geq/mL) (V. parvula; substrate 1% (w/v)): 9.83 ± 0.09 log (Geq/mL)
- absolute abundance of V. parvula (VP), mean ± SD log (Geq/mL) (V. parvula; substrate 1 M in PBS, n = 3): 9.88 ± 0.07 log (Geq/mL)
- absolute abundance of S. salivarius, mean ± SD log (Geq/mL) (S. salivarius; substrate 1% (w/v)): 2.65 ± 0.00 log (Geq/mL)
- absolute abundance of S. salivarius, mean ± SD log (Geq/mL) (S. salivarius; substrate 1 M in PBS, n = 3): 6.29 ± 0.21^∗ log (Geq/mL)
- absolute abundance of S. sanguinis, mean ± SD log (Geq/mL) (S. sanguinis; substrate 1% (w/v)): 8.56 ± 0.11 log (Geq/mL)
- absolute abundance of S. sanguinis, mean ± SD log (Geq/mL) (S. sanguinis; substrate 1 M in PBS, n = 3): 6.39 ± 0.51 log (Geq/mL)
- absolute abundance of F. nucleatum (Fn), mean ± SD log (Geq/mL) (F. nucleatum; substrate 1% (w/v)): 9.40 ± 0.10 log (Geq/mL)
- absolute abundance of F. nucleatum (Fn), mean ± SD log (Geq/mL) (F. nucleatum; substrate 1 M in PBS, n = 3): 6.73 ± 0.06^∗ log (Geq/mL)
- absolute abundance of S. mutans, mean ± SD log (Geq/mL) (S. mutans; substrate 1% (w/v)): 7.46 ± 0.16 log (Geq/mL)
- absolute abundance of S. mutans, mean ± SD log (Geq/mL) (S. mutans; substrate 1 M in PBS, n = 3): 8.24 ± 0.17^∗ log (Geq/mL)
- absolute abundance of A. naeslundii (An), mean ± SD log (Geq/mL) (A. naeslundii; substrate 1% (w/v)): 7.62 ± 0.08 log (Geq/mL)
- absolute abundance of A. naeslundii (An), mean ± SD log (Geq/mL) (A. naeslundii; substrate 1 M in PBS, n = 3): 5.32 ± 0.25^∗ log (Geq/mL)
- absolute abundance of S. sobrinus, mean ± SD log (Geq/mL) (S. sobrinus; substrate 1% (w/v)): 5.36 ± 0.20 log (Geq/mL)
- absolute abundance of S. sobrinus, mean ± SD log (Geq/mL) (S. sobrinus; substrate 1 M in PBS, n = 3): 7.06 ± 0.15 log (Geq/mL)
- absolute abundance of P. intermedia (Pi), mean ± SD log (Geq/mL) (P. intermedia; substrate 1% (w/v)): 7.83 ± 0.32 log (Geq/mL)
- absolute abundance of P. intermedia (Pi), mean ± SD log (Geq/mL) (P. intermedia; substrate 1 M in PBS, n = 3): 5.21 ± 0.77^∗ log (Geq/mL)
- absolute abundance of S. mitis, mean ± SD log (Geq/mL) (S. mitis; substrate 1% (w/v)): 2.65 ± 0.00 log (Geq/mL)
- absolute abundance of S. mitis, mean ± SD log (Geq/mL) (S. mitis; substrate 1 M in PBS, n = 3): 3.58 ± 1.31 log (Geq/mL)
- absolute abundance of S. gordonii, mean ± SD log (Geq/mL) (S. gordonii; substrate 1% (w/v)): 8.12 ± 0.06 log (Geq/mL)
- absolute abundance of S. gordonii, mean ± SD log (Geq/mL) (S. gordonii; substrate 1 M in PBS, n = 3): 8.93 ± 0.31 log (Geq/mL)
- absolute abundance of P. gingivalis (Pg), mean ± SD log (Geq/mL) (P. gingivalis; substrate 1% (w/v)): 6.94 ± 0.21 log (Geq/mL)
- absolute abundance of P. gingivalis (Pg), mean ± SD log (Geq/mL) (P. gingivalis; substrate 1 M in PBS, n = 3): 4.59 ± 0.45^∗ log (Geq/mL)
- absolute abundance of A. actinomycetemcomitans (Aa), mean ± SD log (Geq/mL) (A. actinomycetemcomitans; substrate 1% (w/v)): 9.14 ± 0.12 log (Geq/mL)
- absolute abundance of A. actinomycetemcomitans (Aa), mean ± SD log (Geq/mL) (A. actinomycetemcomitans; substrate 1 M in PBS, n = 3): 8.30 ± 0.29^∗ log (Geq/mL)
- decrease in S. oralis numbers in comparison to the control (S. oralis; substrate 1% (w/v)): ~ 0.9 log(Geq/mL)
- absolute abundance of S. oralis, mean ± SD log (Geq/mL) (S. oralis; substrate 1% (w/v)): 5.98 ± 0.18^∗ log (Geq/mL)
- absolute abundance of S. oralis, mean ± SD log (Geq/mL) (S. oralis; substrate 1 M in PBS, n = 3): 8.52 ± 0.17^∗ log (Geq/mL)

Reference: US20230346670A1, “Prebiotic Oral Care Compositions and Methods” (Colgate-Palmolive Company, priority 2020, published 2023)
